This is an account of results in patent US12343319B2, “Compositions and methods for treatment of diseases and disorders” (Atai Therapeutics Inc., priority 2023, dated 2025).

Data set [1] relates to primary cortical rat neurons. Description: Synaptogenesis assay in primary cortical rat neurons. The data set is classed as cell-based. Conditions: 1 μM (highest concentration), DIV1-DIV10. As for the experimental part:
Pregnant rats for this study were purchased from a commercial breeder. Primary cortical neurons from E17/E18 rat pups were isolated and seeded in 96-well plates. Cells were treated with compound 2-2, FGF (Reference item) or vehicle. After incubation with the respective treatment, cortical neurons were stained for synapsin and tubulin using immunofluorescence.
Stained cells were imaged with the Cytation 5 Multimode reader. From each well, 9 images were taken at 10× magnification. Digital images from cortical neurons were analyzed for the following parameter using a software-supported automatic quantification method: Number of synapsin positive objects. Analysis was performed using Gen5 software. The experiment was run in n=10 technical replicates per condition. Vehicle control and FGF were included on each plate totaling n=20 technical replicates.
Primary cortical neurons were prepared from timed pregnant Spargue Dawley rats at E17/E18. Animals were sacrificed (see section 3.3.1) and embryos were dissected in Calcium and Magnesium free Hanks Balanced Salt Solution (CMF-HBSS) containing 15 mM HEPES and 10 mM NaHCO3, pH 7.2. Embryos were decapitated, skin and skull gently removed and hemispheres were separated. After removing meninges and brain stem, the cortices were isolated, chopped with a sterile razor blade in Chop solution (Hibernate-E without Calcium containing 2% B-27) and digested in 2 mg/mL papain (Worthington) dissolved in Hibernate-E without Calcium for 30 minutes (±5 min) at 30° C. The cortices of the embryos from the two rats were pooled and processed together.
Cortices were triturated for 10-15 times with a fire-polished silanized Pasteur pipette in Hibernate-E without Calcium containing 2% B-27, 0.01% DNaseI, 1 mg/mL BSA, and 1 mg/mL Ovomucoid Inhibitor. Undispersed pieces were allowed to settle by gravity for 3 min and the supernatant was centrifuged for 3 min at 228 g. […]
Cells were counted in a hemacytometer and seeded in nutrition medium on poly-D-lysine pre-coated 96-well plates at a density of 1.5×10^4 cells/well. […]

Data set [2] concerns male Sprague Dawley rats. Description: Psilocybin operant drug discrimination in rats. The data set is classed as in vivo, rat. As to the method:
Thirty-six (36) male Sprague Dawley rats served as subjects. Rats had been trained to lever press for food in standard operant conditioning chambers controlled by Med-PC software (Med. Associates Inc., St. Albans, VT) followed by training to associate the right lever to a psilocybin stimulus (0.5 mg/kg, SC), and the left lever to a neutral stimulus (saline, SC). The sequence of psilocybin and saline injections were administered under a randomized design where neither condition was administered for more than 3 consecutive days. […] The rats continued to receive a daily food ration (˜18 g at day end) with ad libitum access to water in their home cages.
Test sessions continued until 50 pellets had been obtained or 30 min had elapsed. During these sessions, response rate was also measured. Three types of tests were conducted: • 1. Dose-response profile for compound 2-2 to generalize to the psilocybin cue. On test days, rats received a single compound 2-2 dose (1, 3, or 10 mg/kg, IP) 10 min prior to test. The distribution of vehicle vs. drug-paired lever presses was recorded as well as the rate of lever response. • 2. Effect of the 5-HT subtype selective antagonists, M100907 (5-HT2A receptor selective; Kehne et al, 1996) and SB242084 (5-HT2C receptor selective, Kennett et al, 1997) against the generalization of compound 2-2. On test days, the rats received a single dose (0.5 mg/kg IP) of either antagonist 30 min before compound 2-2 (10 mg/kg, IP), which was administered 10 min prior to testing. The distribution of vehicle vs. drug-paired lever presses was recorded as well as the rate of lever response. • 3. Time-course profile for compound 2-2 (10 mg/kg IP) to generalize to the psilocybin cue. On test days, the rats received a single compound 2-2 dose (10 mg/kg, IP) at various pretreatment times (i.e., 10 min, 30 min, 1 h, 2 h, 4 h, 8 h) prior to test. The distribution of vehicle vs. drug-paired lever presses was recorded as well as the rate of lever response.
Drug testing was conducted on a Tuesday and Friday with the animals run on either vehicle or training drug (psilocybin 0.5 mg/kg, SC) on intervening weekdays. Group sizes varied among doses and pretreatment times and tended to be higher under situations where the choice response was more variable. This adjustment was made in an attempt to get as reliable a measure of drug vs. vehicle discrimination as possible at that specific dose or pretreatment time.

Data set [3] concerns the target 5-HT2A receptor (Mus musculus, UniProt P35363). The experiment in a line: 5-HT2A receptor binding in mouse frontal cortical tissue.

5-HT2A receptor, sequence (P35363 whole entry): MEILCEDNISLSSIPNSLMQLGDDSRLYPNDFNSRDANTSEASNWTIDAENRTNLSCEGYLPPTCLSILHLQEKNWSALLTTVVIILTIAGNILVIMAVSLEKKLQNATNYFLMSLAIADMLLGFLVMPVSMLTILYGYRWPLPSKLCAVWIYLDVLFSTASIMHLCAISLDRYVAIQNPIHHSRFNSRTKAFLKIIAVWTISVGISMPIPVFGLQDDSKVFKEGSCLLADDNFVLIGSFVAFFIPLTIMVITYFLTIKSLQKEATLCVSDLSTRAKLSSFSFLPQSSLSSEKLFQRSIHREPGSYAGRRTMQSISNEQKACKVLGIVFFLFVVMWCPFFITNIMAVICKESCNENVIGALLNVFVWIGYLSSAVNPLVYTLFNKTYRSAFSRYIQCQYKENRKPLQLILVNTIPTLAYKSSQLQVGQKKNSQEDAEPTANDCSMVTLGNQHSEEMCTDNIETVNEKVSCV

Broadly, the IC50 is the midpoint of a concentration-inhibition curve. Read a high IC50 as weaker potency. By Ki is commonly meant a measure of affinity in units of concentration, obtained from inhibition or displacement. Take `COc1ccc(OC)c(CCNCc2cc(C)cc(F)c2)c1` [Compound 2-2, 2-(2,5-dimethoxyphenyl)-N-(3-fluoro-5-methylbenzyl)ethan-1-amine]: the “synaptogenesis compared to VC (synapsin positive objects normalized to tubulin III area)” value in data set [1] was “did not have any significant effect”. For the same compound, the “generalization to the psilocybin cue” value is listed as 2+1% in data set [2] (10 mg/kg IP after M100907 0.5 mg/kg IP (30 min before)); 71+14% in data set [2] (10 mg/kg IP after SB242084 0.5 mg/kg IP (30 min before)); 91+8% in data set [2] (10 mg/kg IP, 10 min prior to test (Veh pretreatment)); roughly 35% in data set [2] (10 mg/kg IP, pretreatment time 4 h); roughly 80% in data set [2] (10 mg/kg IP, pretreatment times of 10 and 30 min). Moreover, the response rate result in data set [2] (10 mg/kg IP following antagonist pretreatment) is given as “no significant effect”; in data set [2] (10 mg/kg IP, across pretreatment times 10 min-8 h), “minor effect”; in data set [2] (dose range 1-10 mg/kg IP), “minor effects”. In addition, the rate of responding entry in data set [2] (10 mg/kg IP, only at 10 min post dose) is recorded as “modestly suppressed”. Also, in data set [3], the IC50 came out at 20.8 nM. The Ki in data set [3] (Ki, Mean (Mouse), mouse frontal cortical tissue) amounted to 9.6 nM.
